Columns and labels:
[1] = molecular target: T1, recombinant human GBA (beta-glucocerebrosidase) (Homo sapiens, UniProt P04062); test: Beta-glucocerebrosidase (GBA, glucosylceramidase) assay (4-methylumbelliferyl-beta-D-pyranoside substrate, fluorescence); assay type: biochemical
T1 sequence (P04062 40-536): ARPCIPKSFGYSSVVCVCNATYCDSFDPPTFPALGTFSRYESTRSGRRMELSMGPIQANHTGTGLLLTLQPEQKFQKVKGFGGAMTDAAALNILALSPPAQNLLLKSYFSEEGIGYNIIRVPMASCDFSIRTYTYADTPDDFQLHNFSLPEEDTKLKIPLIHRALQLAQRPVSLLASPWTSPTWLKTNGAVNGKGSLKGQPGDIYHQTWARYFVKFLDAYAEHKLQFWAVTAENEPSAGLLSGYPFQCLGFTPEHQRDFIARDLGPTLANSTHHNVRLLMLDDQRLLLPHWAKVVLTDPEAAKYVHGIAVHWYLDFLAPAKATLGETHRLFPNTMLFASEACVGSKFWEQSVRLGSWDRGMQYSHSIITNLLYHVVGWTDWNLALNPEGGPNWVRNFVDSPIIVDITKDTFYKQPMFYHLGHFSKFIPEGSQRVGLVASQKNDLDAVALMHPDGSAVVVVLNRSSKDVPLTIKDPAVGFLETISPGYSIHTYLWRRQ
Procedure, shortened: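 Recombinant human GBA preincubated with compound dilutions 60 min at 37 °C, then 4-methylumbelliferyl-beta-D-pyranoside added for 60 min at 37 °C. Stopped at pH 10 (glycine/NaOH); fluorescence ex 365/em 440 nm. IC50 from 4-PL fit of inhibition relative to untreated enzyme.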

[2] = molecular target: rat maltase (partially purified alpha-glucosidase from intestinal rat powder); test: Intestinal alpha-glucosidase assay, maltose substrate (Glucose GO Kit); assay type: biochemical
Procedure, shortened: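 First step: 60 min, 37 °C, compound with partially purified rat intestinal alpha-glucosidase. Next, maltose or sucrose for 30 min at 37 °C, ended at 90 °C for 5 min. Glucose quantified enzymatically; concentration–inhibition data fitted 4-PL for IC50.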

Compound	IC50 [1] [nM]	IC50 [2] [nM]
OC[C@@H]1[C@@H](O)[C@H](O)[C@@H](O)CN1Cc1cccc(CNc2ccc(N3CCOCC3)cc2)c1 [Compound 1081, (2R,3R,4R,5S)-2-(hydroxymethyl)-1-{[3-({[4-(morpholin-4-yl)phenyl]amino}methyl)phenyl]methyl}piperidine-3,4,5-triol]	> 100000	110
OC[C@@H]1[C@@H](O)[C@H](O)[C@@H](O)CN1Cc1cccc(CNc2ccc(-c3ccc[nH]3)cc2)c1 [Compound 1082, (2R,3R,4R,5S)-2-(hydroxymethyl)-1-{[3-({[4-(1H-pyrrol-2-yl)phenyl]amino}methyl)phenyl]methyl}piperidine-3,4,5-triol]	13800	14
OC[C@@H]1[C@@H](O)[C@H](O)[C@@H](O)CN1Cc1cccc(CNc2ccc(-c3cccnn3)cc2)c1 [Compound 1083, (2R,3R,4R,5S)-2-(hydroxymethyl)-1-{[3-({[4-(pyridazin-3-yl)phenyl]amino}methyl)phenyl]methyl}piperidine-3,4,5-triol]	> 100000	54
OC[C@@H]1[C@@H](O)[C@H](O)[C@@H](O)CN1Cc1cccc(CNc2ccc(-c3ncccn3)cc2)c1 [Compound 1084, (2R,3R,4R,5S)-2-(hydroxymethyl)-1-{[3-({[4-(pyrimidin-2-yl)phenyl]amino}methyl)phenyl]methyl}piperidine-3,4,5-triol]	> 100000	95
O=[N+]([O-])c1cc(CN2CCCO2)ccc1NCc1cccc(CN2C[C@H](O)[C@@H](O)[C@H](O)[C@H]2CO)c1 [Compound 1086]	> 100000	124
O=[N+]([O-])c1cc(C2=COCCO2)ccc1NCc1cccc(CN2C[C@H](O)[C@@H](O)[C@H](O)[C@H]2CO)c1 [Compound 1087, (2R,3R,4R,5S)-1-{[3-({[4-(5,6-dihydro-1,4-dioxin-2-yl)-2-nitro-phenyl]amino}methyl)phenyl]methyl}-2-(hydroxymethyl)piperidine-3,4,5-triol]	> 100000	4
O=[N+]([O-])c1cc(-c2ccc[nH]2)ccc1NCc1cccc(CN2C[C@H](O)[C@@H](O)[C@H](O)[C@H]2CO)c1 [Compound 1088, (2R,3R,4R,5S)-2-(hydroxymethyl)-1-{[3-({[2-nitro-4-(1H-pyrrol-2-yl)phenyl]amino}methyl)phenyl]methyl}piperidine-3,4,5-triol]	68400	< 1
O=[N+]([O-])c1cc(-c2cccnn2)ccc1NCc1cccc(CN2C[C@H](O)[C@@H](O)[C@H](O)[C@H]2CO)c1 [Compound 1089, (2R,3R,4R,5S)-2-(hydroxymethyl)-1-{[3-({[2-nitro-4-(pyridazin-3-yl)phenyl]amino}methyl)phenyl]methyl}piperidine-3,4,5-triol]	97100	36
O=[N+]([O-])c1cc(-c2ncccn2)ccc1NCc1cccc(CN2C[C@H](O)[C@@H](O)[C@H](O)[C@H]2CO)c1 [Compound 1090, (2R,3R,4R,5S)-2-(hydroxymethyl)-1-{[3-({[2-nitro-4-(pyrimidin-2-yl)phenyl]amino}methyl)phenyl]methyl}piperidine-3,4,5-triol]	32400	34
OC[C@@H]1[C@@H](O)[C@H](O)[C@@H](O)CN1Cc1ccc(CNc2ccc(CN3CCCO3)cc2)cc1 [Compound 1092, (2R,3R,4R,5S)-2-(hydroxymethyl)-1-({4-[({4-[(1,2-oxazolidin-2-yl)methyl]phenyl}amino)methyl]phenyl}methyl)piperidine-3,4,5-triol]	121000	38
OC[C@@H]1[C@@H](O)[C@H](O)[C@@H](O)CN1Cc1ccc(CNc2ccc(C3=COCCO3)cc2)cc1 [Compound 1093, (2R,3R,4R,5S)-1-{[4-({[4-(5,6-dihydro-1,4-dioxin-2-yl)phenyl]amino}methyl)phenyl]methyl}-2-(hydroxymethyl)piperidine-3,4,5-triol]	7480	2
OC[C@@H]1[C@@H](O)[C@H](O)[C@@H](O)CN1Cc1ccc(CNc2ccc(-c3ccc[nH]3)cc2)cc1 [Compound 1094, (2R,3R,4R,5S)-2-(hydroxymethyl)-1-{[4-({[4-(1H-pyrrol-2-yl)phenyl]amino}methyl)phenyl]methyl}piperidine-3,4,5-triol]	12300	19
OC[C@@H]1[C@@H](O)[C@H](O)[C@@H](O)CN1Cc1ccc(CNc2ccc(-c3ncccn3)cc2)cc1 [Compound 1096, (2R,3R,4R,5S)-2-(hydroxymethyl)-1-{[4-({[4-(pyrimidin-2-yl)phenyl]amino}methyl)phenyl]methyl}piperidine-3,4,5-triol]	17600	11
O=[N+]([O-])c1cc(C2=COCCO2)ccc1NCc1ccc(CN2C[C@H](O)[C@@H](O)[C@H](O)[C@H]2CO)cc1 [Compound 1099, (2R,3R,4R,5S)-1-{[4-({[4-(5,6-dihydro-1,4-dioxin-2-yl)-2-nitrophenyl]amino}methyl)phenyl]methyl}-2-(hydroxymethyl)piperidine-3,4,5-triol]	37100	< 1
O=[N+]([O-])c1cc(-c2ccc[nH]2)ccc1NCc1ccc(CN2C[C@H](O)[C@@H](O)[C@H](O)[C@H]2CO)cc1 [Compound 1100, (2R,3R,4R,5S)-2-(hydroxymethyl)-1-{[4-({[2-nitro-4-(1H-pyrrol-2-yl)phenyl]amino}methyl)phenyl]methyl}piperidine-3,4,5-triol]	41700	< 1
O=[N+]([O-])c1cc(-c2cccnn2)ccc1NCc1ccc(CN2C[C@H](O)[C@@H](O)[C@H](O)[C@H]2CO)cc1 [Compound 1101, (2R,3R,4R,5S)-2-(hydroxymethyl)-1-{[4-({[2-nitro-4-(pyridazin-3-yl)phenyl]amino}methyl)phenyl]methyl}piperidine-3,4,5-triol]	32700	< 1
O=[N+]([O-])c1cc(-c2ncccn2)ccc1NCc1ccc(CN2C[C@H](O)[C@@H](O)[C@H](O)[C@H]2CO)cc1 [Compound 1102, (2R,3R,4R,5S)-2-(hydroxymethyl)-1-{[4-({[2-nitro-4-(pyrimidin-2-yl)phenyl]amino}methyl)phenyl]methyl}piperidine-3,4,5-triol]	28700	< 1
[N-]=[N+]=Nc1ccc(NCCC23CC(CCN4C[C@H](O)[C@@H](O)[C@H](O)[C@H]4CO)(C2)C3)c([N+](=O)[O-])c1 [Compound 1103, (2R,3R,4R,5S)-1-[2-(3-{2-[(4-azido-2-nitrophenyl)amino]ethyl}bicyclo[1.1.1]pentan-1-yl)ethyl]-2-(hydroxymethyl)piperidine-3,4,5-triol]	11900	279
[N-]=[N+]=Nc1ccc(NCc2ccc(Cc3ccc(CN4C[C@H](O)[C@@H](O)[C@H](O)[C@H]4CO)cc3)cc2)c([N+](=O)[O-])c1 [Compound 1105, (2R,3R,4R,5S)-1-({4-[(4-{[(4-azido-2-nitrophenyl)amino]methyl}phenyl)methyl]phenyl}methyl)-2-(hydroxymethyl)piperidine-3,4,5-triol]	9090	6
[N-]=[N+]=Nc1ccc(NCC[C@H]2CC[C@@H](CCN3C[C@H](O)[C@@H](O)[C@H](O)[C@H]3CO)CC2)c([N+](=O)[O-])c1 [Compound 1106, (2R,3R,4R,5S)-2-(hydroxymethyl)-1-{2-[(1s,4s)-4-{2-[(4-azido-2-nitrophenyl)amino]ethyl}cyclohexyl]ethyl}piperidine-3,4,5-triol]	6970	31
[N-]=[N+]=Nc1ccc(NCC[C@H]2CC[C@H](CCN3C[C@H](O)[C@@H](O)[C@H](O)[C@H]3CO)CC2)c([N+](=O)[O-])c1 [Compound 1107, (2R,3R,4R,5S)-2-(hydroxymethyl)-1-{2-[(1r,4r)-4-{2-[(4-azido-2-nitrophenyl)amino]ethyl}cyclohexyl]ethyl}piperidine-3,4,5-triol]	362	249
O=[N+]([O-])c1cc(CN2CCCO2)ccc1NCCc1ccc(CCN2C[C@H](O)[C@@H](O)[C@H](O)[C@H]2CO)cc1 [Compound 1108, (2R,3R,4R,5S)-2-(hydroxymethyl)-1-(2-{4-[2-({2-nitro-4-[(1,2-oxazolidin-2-yl)methyl]phenyl}amino)ethyl]phenyl}ethyl)piperidine-3,4,5-triol]	6000	98
O=[N+]([O-])c1cc(-c2cccnn2)ccc1NCCc1ccc(CCN2C[C@H](O)[C@@H](O)[C@H](O)[C@H]2CO)cc1 [Compound 1109, (2R,3R,4R,5S)-2-(hydroxymethyl)-1-{2-[4-(2-{[2-nitro-4-(pyridazin-3-yl)phenyl]amino}ethyl)phenyl]ethyl}piperidine-3,4,5-triol]	6550	1
O=[N+]([O-])c1cc(-c2ccncc2)ccc1NCCc1ccc(CCN2C[C@H](O)[C@@H](O)[C@H](O)[C@H]2CO)cc1 [Compound 1110, (2R,3R,4R,5S)-2-(hydroxymethyl)-1-{2-[4-(2-{[2-nitro-4-(pyridin-4-yl)phenyl]amino}ethyl)phenyl]ethyl}piperidine-3,4,5-triol]	48	< 1
